≈ marks a conversion by molar mass, not a printed value.

We go through six compounds from ChEMBL document CHEMBL1123818, “Synthesis and biological activity of 5-(2,2-difluorovinyl)-2'-deoxyuridine” (1987).

Assay [1] is described as follows: Compound was tested for antiviral activity against […] Vassicular stomatitis in primary rabbit kidney cells. Format: functional. As to conditions: Oryctolagus cuniculus.
Assay [2] can be described thus: Compound was tested for antiviral activity against herpes simplex virus( HSV-2-G) strain in primary rabbit kidney cells. Format: functional. Particulars: Oryctolagus cuniculus.
Assay [3] is described as follows: Compound was tested for antiviral activity against herpes simplex virus( HSV-1-F) strain in primary rabbit kidney cells. The format is functional. As to conditions: Oryctolagus cuniculus.
The species entered for another assay is Oryctolagus cuniculus. The experiment in a line: Compound was tested for antiviral activity against Vaccinia virus in primary rabbit kidney cells. Format: functional.
In assay [4] the test system is Human alphaherpesvirus 1. The experiment in a line: (§1) Compound was tested for antiviral activity against herpes simplex virus (thymidine kinase deficient herpes simplex virus ( HSV-1 (B2006) in primary rabbit kidney cells. Format: functional, Oryctolagus cuniculus.
In a further assay the test system is L1210. Briefly: Compound was tested for antitumor activity against L1210 cells. The format is functional. Particulars: Mus musculus.
Assay [5] deals with Raji. Briefly: Compound was tested for antitumor activity against thymidine kinase deficient human B-lymphoblast […] cells. The format is functional.
Assay [6] in a line: Compound was tested for antiviral activity against herpes simplex virus( HSV-1-McIntyre) strain in primary rabbit kidney cells. The format is functional. As to conditions: Oryctolagus cuniculus.
For assay [7], the system named is Raji. Briefly: Compound was tested for antitumor activity against human B-lymphoblast Raji/0 cells. The format is functional.
Assay [8] can be described thus: Compound was tested for antiviral activity against herpes simplex virus( HSV-2-196 strain in primary rabbit kidney cells. Particulars: Oryctolagus cuniculus. Format: functional.
The next assay concerns MOLT-4F. The experiment in a line: Compound was tested for antitumor activity against human T-lymphoblast Molt/4F cells. Format: functional.
A short description of assay [9]: Compound was tested for antitumor activity against HSV-1 TK gene transformed TK deficient FM3A cells. Particulars: Mus musculus. Format: functional.
Assay [10] has as its system FM3A. Briefly: Compound was tested for antitumor activity against FM3A/0 mammary carcinoma cells. Format: functional. As to conditions: Mus musculus.
Assay [11] concerns FM3A. Briefly: Compound was tested for antitumor activity against FM3A/TK- cells. Particulars: Mus musculus. The format is functional.
A short description of assay [12]: Compound was tested for antiviral activity against herpes simplex virus( HSV-1-KOS) strain in primary rabbit kidney cells. Particulars: Oryctolagus cuniculus. The format is functional.
Assay [13] is described as follows: Compound was tested for antiviral activity against herpes simplex virus( HSV-2-lyons) strain in primary rabbit kidney cells. Particulars: Oryctolagus cuniculus. The format is functional.
The test system of assay [14] is Human alphaherpesvirus 1. The description is as §1. Format: functional.
Assay [15] in a line: Compound was tested for antiviral activity against herpes simplex virus (HSV-1-McIntyre) strain in primary rabbit kidney cells. The format is functional. Particulars: Oryctolagus cuniculus.
Assay [16] relates to Human alphaherpesvirus 1. Briefly: Compound was tested for antiviral activity against herpes simplex virus (thymidine kinase deficient herpes simplex virus( HSV-1 (B2006) in primary rabbit kidney cells. The format is functional, Oryctolagus cuniculus.

Take `O=c1[nH]c(=O)n([C@H]2C[C@H](O)[C@@H](CO)O2)cc1/C=C/Br` [BRIVUDINE]: the MIC50 in [1] is more than 200 µg/mL; in [2] it was 2 µg/mL (≈ 6 µM); in assay [3], 0.02 µg/mL (≈ 0.06 µM); in the assay listed under Oryctolagus cuniculus, 20 µg/mL (≈ 60 µM); in the assay on Human alphaherpesvirus 1 [4] it was more than 200 µg/mL; in the assay on L1210, 31 µg/mL (≈ 93.1 µM). Further, the MIC50 in the assay on Raji [5] is 78 µg/mL (≈ 234 µM); in assay [6], 0.02 µg/mL (≈ 0.06 µM); in the assay on Raji [7], 29 µg/mL (≈ 87.1 µM); in [8], 7 µg/mL (≈ 21 µM); against MOLT-4F, more than 100 µg/mL; in assay [9], 0.0004 µg/mL (≈ 0.0012 µM). Also, the MIC50 against FM3A [10] came to 13 µg/mL (≈ 39 µM); against FM3A [11], 0.4 µg/mL (≈ 1.2 µM); in assay [12] it was 0.02 µg/mL (≈ 0.06 µM); in assay [13], 7 µg/mL (≈ 21 µM).

Turning to `O=c1[nH]c(=O)n([C@H]2C[C@H](O)[C@@H](CO)O2)cc1I` [IDOXURIDINE], the MIC50 is more than 200 µg/mL in assay [1]; 1.5 µg/mL (≈ 4.24 µM) in assay [2]; 0.2 µg/mL (≈ 0.565 µM) in assay [3]; 0.5 µg/mL (≈ 1.41 µM) in the assay filed under Oryctolagus cuniculus; more than 200 µg/mL in the assay on Human alphaherpesvirus 1 [4]; 0.3 µg/mL (≈ 0.847 µM) in [6]. For the same compound, the MIC50 came out at 3 µg/mL (≈ 8.47 µM) in assay [8], 0.15 µg/mL (≈ 0.424 µM) in assay [12] and 1.5 µg/mL (≈ 4.24 µM) in assay [13].

On to `O=c1[nH]c(=O)n([C@H]2C[C@H](O)[C@@H](CO)O2)cc1C=C(F)F`, for which the MIC50 in [1] is more than 200 µg/mL; in assay [2], 6 µg/mL (≈ 20.7 µM); in [3], 0.3 µg/mL (≈ 1.03 µM); in the assay listed under Oryctolagus cuniculus, 15 µg/mL (≈ 51.7 µM); against Human alphaherpesvirus 1 [4], more than 200 µg/mL; with L1210 it was 30 µg/mL (≈ 103 µM). In addition, the MIC50 in the assay on Raji [5] was more than 100 µg/mL; in [6] it was 0.3 µg/mL (≈ 1.03 µM); against Raji [7], 33 µg/mL (≈ 114 µM); in assay [8], 10 µg/mL (≈ 34.5 µM); against MOLT-4F it was 42 µg/mL (≈ 145 µM); in assay [9], 0.25 µg/mL (≈ 0.861 µM). Moreover, the MIC50 is 55 µg/mL (≈ 190 µM) with FM3A [10], more than 100 µg/mL against FM3A [11], 0.2 µg/mL (≈ 0.689 µM) in assay [12] and 3 µg/mL (≈ 10.3 µM) in assay [13].

For the compound `O=c1[nH]c(=O)n([C@H]2C[C@H](O)[C@@H](CO)O2)cc1C=C(Br)Br`, the MIC50 in assay [1] was more than 400 µg/mL; in assay [2], 200 µg/mL (≈ 485 µM); in [3] it was 70 µg/mL (≈ 170 µM); in the assay filed under Oryctolagus cuniculus, 100 µg/mL (≈ 243 µM); in the assay on Human alphaherpesvirus 1 [4] it was more than 150 µg/mL; in the assay with L1210 it was more than 100 µg/mL. Further, the MIC50 is more than 100 µg/mL in the assay with Raji [5]; 20 µg/mL (≈ 48.5 µM) in [6]; more than 100 µg/mL in the assay with Raji [7]; 150 µg/mL (≈ 364 µM) in assay [8]; more than 100 µg/mL against MOLT-4F; 7 µg/mL (≈ 17 µM) in [9]. In addition, the MIC50 in the assay on FM3A [10] is more than 100 µg/mL; against FM3A [11], more than 100 µg/mL; in assay [12], 20 µg/mL (≈ 48.5 µM); in assay [13] it was 200 µg/mL (≈ 485 µM).

With `O=c1[nH]c(=O)n([C@@H]2C[C@H](O)[C@@H](CO)O2)cc1C=C(F)F`, the MIC50 in assay [1] was more than 200 µg/mL; in assay [2] it was 150 µg/mL (≈ 517 µM); in assay [3] it was 20 µg/mL (≈ 68.9 µM); in the assay on L1210, more than 100 µg/mL; against Raji [5], more than 100 µg/mL; in [6], 20 µg/mL (≈ 68.9 µM). In addition, the MIC50 is more than 100 µg/mL in the assay with Raji [7]; more than 200 µg/mL in the assay on Human alphaherpesvirus 1 [14]; 100 µg/mL (≈ 345 µM) in assay [8]; more than 100 µg/mL in the assay with MOLT-4F; more than 100 µg/mL in assay [9]; more than 100 µg/mL against FM3A [10]. Also, the MIC50 with FM3A [11] was more than 100 µg/mL; in [12], 20 µg/mL (≈ 68.9 µM); in assay [13], 70 µg/mL (≈ 241 µM).

With `Oc1ncc(C=C(F)F)c(O)n1`, the MIC50 (in assay [1]; in assay [15]; against Human alphaherpesvirus 1 [16]; in [2]; in assay [3]; in the assay listed under Oryctolagus cuniculus) was more than 200 µg/mL in each case. In addition, the MIC50 against L1210 was more than 100 µg/mL; in the assay with Raji [5], more than 100 µg/mL; in the assay on Raji [7], more than 100 µg/mL; in assay [8], more than 200 µg/mL; against MOLT-4F, more than 100 µg/mL; in assay [9], more than 100 µg/mL. Also, the MIC50 against FM3A [10] is more than 100 µg/mL; against FM3A [11], more than 100 µg/mL; in assay [12], more than 200 µg/mL; in [13] it was more than 200 µg/mL.
